Experiment [1] has as its target T1, NdCld (chlorite dismutase from 'Candidatus Nitrospira defluvii') (Nitrospira defluvii, UniProt B3U4H7).
T1 sequence (B3U4H7 27-264): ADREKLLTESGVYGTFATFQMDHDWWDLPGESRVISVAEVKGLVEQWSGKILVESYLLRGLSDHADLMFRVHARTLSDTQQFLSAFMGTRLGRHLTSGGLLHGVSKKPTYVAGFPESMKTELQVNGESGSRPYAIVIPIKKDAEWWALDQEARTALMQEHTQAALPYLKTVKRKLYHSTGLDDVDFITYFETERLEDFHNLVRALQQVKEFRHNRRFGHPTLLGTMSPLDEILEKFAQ
Kind of experiment: UV-vis titration, Soret band […] nm. Further details: gene cld; TEV-cleavable N-terminal Strep-II tag, modified pET-21b(+), E. coli Tuner (DE3) with hemin added; haeme b pentamer. It counts as binding.

The target in experiment [2] is T1, NdCld (chlorite dismutase from 'Candidatus Nitrospira defluvii'). Kind of experiment: DSC, absolute Tm with ligand. The experiment is classed as binding. Further details: gene cld; TEV-cleavable N-terminal Strep-II tag, modified pET-21b(+), E. coli Tuner (DE3) with hemin added; haeme b pentamer. Particulars: 50 mM MES pH 5.5. In general terms: Differential scanning calorimetry records heat flow against a reference as temperature is scanned.

Another experiment has as its target NdCld wild-type. Kind of experiment: Titration of SCN− and F− to NdCld wild-type, UV–vis, dissociation constant. Particulars: pH 5.5, 25°C. The experiment is classed as binding, Candidatus Nitrospira defluvii. As to the method: SCN^− and F^− were titrated to NdCld wild-type for the determination of the dissociation constant (KD). The UV–visible electronic absorption spectrum of wild-type NdCld is altered upon binding of SCN^− or F^− if the respective ligand acts as a sixth ligand to haeme b. Binding of F^− was monitored by the change in absorbance at 612 nm [charge transfer band (CT1)] and binding of SCN^− was followed at 411 nm (Soret band). The measurements were performed using a Zeiss Specord S10 DiodeArray spectrophotometer equipped using a quartz cuvette with a path length of 10 mm under constant stirring at 25°C. Samples of 2 μM concentration in 50 mM MES buffer, pH 5.5, were used. Final ligand concentrations were 120 mM (F^−) and 50 mM (SCN^−).

The test system of experiment [3] is NdCld (chlorite dismutase), substrate chlorite. Kind of experiment: Chlorite degradation, O2 release with Clark-type electrode (steady state). It counts as biochemical, Candidatus Nitrospira defluvii. The following applies: 200 mM fluoride, 175 μM chlorite, pH 5.5.
Protocol: Cld-mediated chlorite reduction and concomitant oxygen generation was monitored by measuring the release of O2 using a Clark-type electrode (Oxygraph Plus; Hansatech Instruments). The electrode was inserted into a stirred water bath maintained at 30°C. The electrode was equilibrated to 100% O2 saturation by flushing with O2, further 0% saturation was achieved by bubbling with N2 until a plateau was reached. Reactions were carried out in O2-free 50 mM MES buffer, pH 5.5. […] A high excess of ligands (200 mM F^−, 10 mM SCN^−) was present in the respective measurements. […] Molecular oxygen production rates (μM O2 s^−1) were obtained from the initial linear time traces (initial velocities, v0) for direct comparison.
Experiment [4] concerns the target T1, NdCld (chlorite dismutase from 'Candidatus Nitrospira defluvii'). Kind of experiment: biochemical. Set-up: gene cld.
Experiment [5] has the same target. Set-up: gene cld. Particulars: 200 mM fluoride, 175 μM chlorite, 50 nM enzyme, 50 mM MES pH 5.5, 30 °C.
Another experiment has as its target BsHemQ. Further details: method as in PMID 20543190. The following applies: read-out: KD of haeme binding; cited from earlier work.
In the next experiment the target is LmHemQ. Set-up: method as in PMID 25602700. Particulars: read-out: KD of haeme binding; cited from earlier work.
Another experiment deals with SaHemQ. Set-up: method as in PMID 23737523. Particulars: read-out: KD of haeme binding; cited from earlier work.

As a reminder, the Kd is the free concentration of one partner at which half of the binding sites on the other are occupied at equilibrium, for simple one-to-one binding. With `N#CS` [SCN^−, thiocyanate], the equilibrium dissociation constant (Kd) (in [1]; at NdCld wild-type (SCN− to wild-type protein)) was 150 ± 40 µM throughout. In addition, the Tm in [2] (10 mM thiocyanate, main peak) turned out to be 94 °C.

Regarding `F` [F^−, fluoride], the Tm in [2] (200 mM fluoride) was determined as 102 °C. Further, the Kd (on NdCld wild-type (F− to wild-type protein); in experiment [4]) was 5900 ± 400 µM in each case. In experiment [3], the “v0 of wild-type NdCld remaining relative to ligand free” value is on record as 53%. Moreover, in [5], the v0 remaining came to 53%.

`C=CC1=C(C)c2cc3[n-]c(cc4[n-]c(cc5nc(cc1n2)C(C)=C5C=C)c(C)c4CCC(=O)O)c(CCC(=O)O)c3C.[Fe+2]` [haeme, haeme b]: the Kd at BsHemQ was 30 to 40 µM; on LmHemQ it was 7 to 16 µM; on SaHemQ, 1 µM.

The values above are taken from paper PMC4793301, “From chlorite dismutase towards HemQ–the role of the proximal H-bonding network in haeme binding” (Bioscience Reports, 2016).
